This is an account of results in publication PMC6597268 (Biochemistry, 2019).

One experiment concerns the target MitB (Streptomyces lavendulae, UniProt Q9WW09). As to the kind of experiment: anion exchange HPLC steady-state kinetics, Michaelis-Menten fit. It is filed as biochemical. The settings on record: pseudo-first order.
The target of another experiment is T1, MitE (Streptomyces lavendulae, UniProt Q9X5R7).
T1 sequence (Q9X5R7 1-707): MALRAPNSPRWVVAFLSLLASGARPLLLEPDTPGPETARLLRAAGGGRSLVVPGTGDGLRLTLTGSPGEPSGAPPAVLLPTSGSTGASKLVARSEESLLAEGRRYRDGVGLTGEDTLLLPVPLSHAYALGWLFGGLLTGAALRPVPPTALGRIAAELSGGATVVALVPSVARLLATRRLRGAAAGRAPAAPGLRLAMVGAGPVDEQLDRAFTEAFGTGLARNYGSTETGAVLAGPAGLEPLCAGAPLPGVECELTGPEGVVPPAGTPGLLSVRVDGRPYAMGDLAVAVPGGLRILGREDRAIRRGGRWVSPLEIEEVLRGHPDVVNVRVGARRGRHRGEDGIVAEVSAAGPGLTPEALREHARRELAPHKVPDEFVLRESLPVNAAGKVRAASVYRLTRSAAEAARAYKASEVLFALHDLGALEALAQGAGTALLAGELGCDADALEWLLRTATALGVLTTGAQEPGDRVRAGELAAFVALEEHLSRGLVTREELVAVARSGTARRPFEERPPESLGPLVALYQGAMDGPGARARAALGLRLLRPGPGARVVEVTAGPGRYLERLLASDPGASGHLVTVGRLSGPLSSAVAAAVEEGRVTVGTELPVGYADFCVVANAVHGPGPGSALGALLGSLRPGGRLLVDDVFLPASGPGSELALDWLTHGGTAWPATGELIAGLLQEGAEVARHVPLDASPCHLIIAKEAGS
T1 sequence (Q9X5S0 1-93 partner): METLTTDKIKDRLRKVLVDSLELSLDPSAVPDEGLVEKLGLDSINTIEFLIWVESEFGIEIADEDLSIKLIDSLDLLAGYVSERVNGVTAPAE
The experiment in a line: HPLC of AHBA released from MmcB by KOH or cysteamine. Type of experiment: biochemical. To be noted: holo-MmcB as acceptor.

Regarding `CC(=O)N[C@H]1[C@@H](OP(=O)(O)OP(=O)(O)OC[C@H]2O[C@@H](n3ccc(=O)[nH]c3=O)[C@H](O)[C@@H]2O)O[C@H](CO)[C@@H](O)[C@@H]1O` [UDP-GlcNAc], the Km at MitB (2 mM SNAc-AHBA (unsaturating) as acceptor) was 0.94 ± 0.15 mM.
Regarding `Nc1ncnc2c1ncn2[C@@H]1O[C@H](COP(=O)(O)OP(=O)(O)OP(=O)(O)O)[C@@H](O)[C@H]1O` [ATP], the “HPLC of AHBA released from MmcB by KOH or cysteamine” value on MitE (AHBA) was “we investigated the ability of MitE to load AHBA to holo-MmcB in the presence of ATP”.
On to `CC(=O)NCCSC(=O)c1cc(N)cc(O)c1` [SNAc-AHBA], for which the Michaelis constant (Km) on MitB (2 mM UDP-GlcNAc as donor) amounted to 10 ± 3.3 mM.
As for `Nc1cc(O)cc(C(=O)O)c1` [AHBA], the “HPLC of AHBA released from MmcB by KOH or cysteamine” value at MitE (ATP) is reported as “These evidences in combination suggest that MitE catalyzes the loading of AHBA onto holo-MmcB”.

The term Km denotes the concentration of substrate that gives half-maximal velocity.
